{"source": "paper PMC12833861", "about": "“Organoplatinum(II) Type II Immunogenic Cell Death Inducers Target Protein Tyrosine Phosphatase 1B to Drive Immunogenicity” (Journal of the American Chemical Society, 2025)", "molecular_target": "T1, PTP1B (Homo sapiens, UniProt P18031)", "T1 construct": "gene PTPN1; recombinant PTP1B protein", "T1 sequence (P18031 1-435)": "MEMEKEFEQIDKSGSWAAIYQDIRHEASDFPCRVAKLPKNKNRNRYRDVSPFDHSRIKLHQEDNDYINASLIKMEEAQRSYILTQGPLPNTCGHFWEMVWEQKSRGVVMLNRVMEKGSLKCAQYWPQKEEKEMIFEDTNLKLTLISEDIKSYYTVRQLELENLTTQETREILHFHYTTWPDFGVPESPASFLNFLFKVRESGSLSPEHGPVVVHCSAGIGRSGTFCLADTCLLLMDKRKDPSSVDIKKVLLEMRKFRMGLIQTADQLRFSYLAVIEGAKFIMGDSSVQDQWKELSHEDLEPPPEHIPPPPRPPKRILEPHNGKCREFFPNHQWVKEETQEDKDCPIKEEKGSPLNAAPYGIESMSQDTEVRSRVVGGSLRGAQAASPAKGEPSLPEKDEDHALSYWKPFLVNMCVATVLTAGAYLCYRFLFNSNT", "assay": "p-nitrophenyl phosphate phosphatase assay with recombinant PTP1B; supported by CETSA in HCT116 lysates (ΔTm -4.[…] °C)", "assay_type": "biochemical", "data": [{"smiles": "CCCCCC[n+]1ccn2[c]1[Pt-2]1([c]3ccccc3-c3cccc[n+]31)[c]1n(cc[n+]1CCCCCC)CCC2", "note": "[Pt-ER, PlatinER]", "values": [{"measurement": "IC50", "result": "20.6 ± 1.8", "unit": "µM"}]}]}
